Drawing on patent publication US8415357B2 (Canbas Co., Ltd., priority 2007, dated 2013), this text covers IC50 for 31 compounds.

pIC50: −log10 of the molar value.

For one assay, the system named is Jurkat cells. As to the kind of experiment: Adaptation to G2 cell cycle arrest (G1 increment) in X-ray pre-arrested Jurkat cells, flow cytometry. It is filed as cell-based, human. The settings on record: Homo sapiens, Jurkat, 24 h, Table 1; concentration causing half-maximal increase of % cells in G1 phase (G1 increment); Jurkat pre-arrested by 10 Gy X-ray, 24 hours with compound. The method, then:
Phenotype-based screening was used to measure the ability of compounds of the invention to cause adaptation to G2 cell cycle arrest in G2-arrested cells. Adaptation to G2 cell cycle arrest and re-entry into the cell cycle can result in death of the previously G2-arrested cell, or suppression (inhibition) of further proliferation of the previously G2-arrested cell. In a non-limiting embodiment, the ability to cause adaptation to G2 cell cycle arrest was measured by contacting cells in which G2 arrest had been induced by irradiation (e.g., gamma (γ) radiation or X-ray radiation), with compounds of the invention at various concentrations and, for each compound at each concentration, determining the percentage of cells that escaped G2 arrest and re-entered the cell cycle, by determining the percentage of cells in G1 phase. The IC50 value for each compound was calculated as the dosage (usually in μM) that caused half-maximal increase of the percentage of cells in G1 phase (the G1 increment) measured for that compound. Certain invention compounds were initially identified by phenotype-based screening of small molecule libraries for activity against G2-arrested cells as described above.
Jurkat cells (a human T cell lymphoma-derived cell line) were arrested at the G2 phase by X-ray irradiation at 10 Gy, and cultured for 24 hours in 10% fetal calf serum (FCS)/RPMI1640 at 37° C. with 5% CO2/air. (FCS was from Equitech-Bio, Kerrville, Tex., and RPMI1640 was from Sigma-Aldrich, St. Louis, Mo.) Test compounds were added to the medium at the indicated doses, and the cells were cultured under the conditions described above, for an additional 24 hours before harvesting.
Harvested cells were stained with Krishan's buffer (0.1% sodium citrate, 50 μg/ml propidium iodide, 20 μg/ml RNase A, 0.5% Nonidet P-40) and analyzed by flow cytometry (BD Biosciences, Franklin Lakes, N.J.) to identify the cell stage of each cell in the sample. Cells in G1 phase were identified by having […] (2N) DNA content.
The IC50 value for each compound was calculated as the dosage showing half maximal activity to induce the increase of the percentage of cells in G1 phase (the G1 increment). IC50 values were used to measure the activity of compounds and to determine structure-activity relationships.
Pre-arrested Jurkat cells were prepared as described in Example 1. Briefly, Jurkat cells were subjected to X-ray irradiation at a dose of 10 Gy, and cultured for 24 hours in 10% fetal calf serum (FCS)/RPMI1640 at 37° C. with 5% CO2/air, after which time cells were exposed to various concentrations of test compounds, and cultured under the conditions described above for an additional 24 hours before harvesting. Harvested cells were stained with Krishan's buffer (0.1% sodium citrate, 50 μg/ml propidium iodide, 20 μg/ml RNase A, 0.5% Nonidet P-40) and analyzed by flow cytometry (BD Biosciences, Franklin Lakes, N.J.) to identify the cell stage of each cell in the sample. Cells in G1 phase were identified by having […] (2N) DNA content.
The IC50 value for each compound was calculated as the dosage (concentration in μM) that caused half-maximal increase of the percentage of cells in G1 phase (the G1 increment) measured for that test compound. Table 1 below presents the structure, mass, 1H NMR values, and […] values for representative compounds.
The IC50 value for each compound was calculated as the dosage (concentration in μM) that caused half-maximal increase of the percentage of cells in G1 phase (the G1 increment) measured for that test compound. Table 2 below presents structures, IUPAC name, molecular formula, ID number (“SCID”), mass, 1H NMR values, and IC50 values for representative compounds. Table 3 presents structures, IUPAC name, molecular formula, ID number (“SCID”), mass, 1H NMR values, and IC50 values for further representative compounds.
(A flow cytometer gives signals particle by particle.)
Regarding `CC1=C(C)C(=O)N(Nc2cc(C(F)(F)F)cc(C)n2)C1=O` [Compound S00069], the negative-log IC50 (pIC50) was 5.30. The same measure, in the same setting: for `CC1=C(C)C(=O)N(Nc2ccc(C(F)(F)F)cn2)C1=O` [Compound S00073] the value was 5.60. On to `CC1=C(C)C(=O)N(N(C)c2cc(C(F)(F)F)cc(C)n2)C1=O` [Compound S00084], for which the pIC50 was 5.30.

Consider `CC1=C(C)C(=O)N(Cc2ccc(C(F)(F)F)cc2)C1=O` [Compound S00088], for which the pIC50 is 5.00. With `CC1=C(C)C(=O)N(Nc2nc(Cl)ccc2C(F)(F)F)C1=O` [Compound S00108], the pIC50 was 4.70.

`CC1=C(C)C(=O)N(Cc2ccc(C(F)(F)F)cn2)C1=O` [Compound S00110]: the negative-log IC50 (pIC50) was 4.22. The same measure, in the same setting: for `CC1C(=O)N(Nc2ccc(C(F)(F)F)cn2)C(=O)C1Sc1ccccc1` (stereo not drawn) [Compound S00145] the value was 4.52. Same read-out and setting: for `CC1=C(C)C(=O)N(N(C)c2ccc(C(F)(F)F)c(Cl)n2)C1=O` [Compound S00170] the value was 6.92; for `O=C1C2=C(CCCC2)C(=O)N1Nc1ccc(C(F)(F)F)c(Cl)n1` [Compound S00186, 2-{[6-chloro-5-(trifluoromethyl)-2-pyridyl]amino}-4,5,6,7-tetrahydroisoindole-1,3-dione], 6.20.

Turning to `O=C1C2=C(CCCC2)C(=O)N1Nc1ccc(C(F)(F)F)cn1` [Compound S00200], the pIC50 was 5.30. On the same count and under the same terms, for `CC1=C(C)C(=O)N(Cc2ccc(Cl)c(C(F)(F)F)c2)C1=O` [Compound S00201] the value was 5.00. The same measure, in the same setting: for `CC1=C(c2ccccc2)C(=O)N(Nc2ccc(C(F)(F)F)c(Cl)n2)C1=O` [Compound S00257] the value was 5.00; for `CC1=C(C)C(=O)N(Nc2ccc(C)cc2C)C1=O` [Compound S00294], 5.30; for `CC1=C(C)C(=O)N(Nc2nc3ccccc3s2)C1=O` [Compound S00295], 5.30. Still for that read-out and setting: then `CC1=C(C)C(=O)N(Nc2cccc(C(F)(F)F)c2)C1=O` [Compound S00305], with 5.30; and `CC1=C(C)C(=O)N(Nc2cc(Cl)ccc2C)C1=O` [Compound S00319], with 5.00; and `CC1=CC(=O)N(Nc2ccc(C(F)(F)F)c(Cl)n2)C1=O` [Compound S00333], with 4.82. Take `CC1=C(C)C(=O)N(Nc2ccc3ccccc3n2)C1=O` [Compound S00362]: the pIC50 is 5.30. Same read-out and setting: for `CC1=C(C)C(=O)N(Nc2ccc(Cl)c(C(F)(F)F)c2)C1=O` [Compound S00405] the value was 5.60; for `O=C1C(Cl)=C(Cl)C(=O)N1Nc1cccc(C(F)(F)F)c1` [Compound S00406], 4.10. `CC1=C(C)C(=O)N(Cc2ccc(C(F)(F)F)cc2Cl)C1=O` [Compound S00408]: the pIC50 was 5.00.

In the case of `O=C1C(Cl)=C(Cl)C(=O)N1Cc1ccc(C(F)(F)F)cc1` [Compound S00409], the pIC50 was 4.70. Same read-out and setting: then `COC1=C(C)C(=O)N(Cc2ccc(C(F)(F)F)cc2)C1=O` [Compound S00410], with 5.00; and `CC1=C(C)C(=O)N(Cc2ccc(C(F)(F)F)c(F)c2)C1=O` [Compound S00412], with 5.00. On the same count and under the same terms, for `COc1nc(NN2C(=O)C(C)=C(C)C2=O)ccc1C(F)(F)F` [Compound S00451] the value was 4.22; for `CC1=C(C)C(=O)N(Nc2ccc(C)c(C)c2)C1=O` [Compound S00452], 5.00. On the same count and under the same terms, then `CC1=C(C)C(=O)N(Nc2nc3ccc(F)cc3s2)C1=O` [Compound S00454], with 5.40.

On to `CC1=C(C)C(=O)N(Nc2cc(Cl)cc(Cl)c2)C1=O` [Compound S00456], for which the pIC50 is 5.60. The same measure, in the same setting: for `CC1=C(C)C(=O)N(Nc2cc(C(F)(F)F)cc(C(F)(F)F)c2)C1=O` [Compound S00474] the value was 5.60. On the same count and under the same terms, for `CC1=C(C)C(=O)N(Nc2cccc3ccccc23)C1=O` [Compound S00475] the value was 5.43. Still for that read-out and setting: for `CC1=C(C)C(=O)N(Nc2ccc(C(C)(C)C)cc2)C1=O` [Compound S00479] the value was 5.60.

The same assay, now with this note: Homo sapiens, Jurkat, 24 h, Table 2; concentration causing half-maximal increase of % cells in G1 phase (G1 increment); Jurkat pre-arrested by 10 Gy X-ray, 24 hours with compound.
As to `CC1=C(C)C(=O)N(N(C)c2ccc(C(F)(F)F)c(Cl)n2)C1=O` [Compound S00170], the negative logarithm of the IC50 (pIC50) is 6.92. `O=C1C2=C(CCCC2)C(=O)N1Nc1ccc(C(F)(F)F)c(Cl)n1` [Compound S00186, 2-{[6-chloro-5-(trifluoromethyl)-2-pyridyl]amino}-4,5,6,7-tetrahydroisoindole-1,3-dione]: the negative logarithm of the IC50 (pIC50) is 6.20.

A word on the pIC50: it is the IC50 on a negative log10 scale, so that one unit is a factor of ten.
